Assay results taken from patent US20140206682A1, “COMPOUNDS AND COMPOSITIONS AS PDGFR KINASE INHIBITORS” (NOVARTIS PHARMACEUTICALS UK LIMITED, priority 2011, published 2014).

System: PDGFR
Assay: Rat A10 cell proliferation assay
Format: cell-based
Details: Table 1; Rat A10 cells, recombinant rat PDGF-BB, CellTiter-Glo after 68 hours
Experimental: Compounds of Formula (I) provided herein were assayed to measure their capacity to inhibit c-kit and PDGFR kinases using the appropriate assay described below: c-Kit inhibition was evaluated using the Mo7e cell proliferation assay, and PDGFR inhibition was evaluated using the Rat A10 cell proliferation assay and the Human TG/HA-VSMC cell proliferation assay.
Rat A10 cells (ATCC) were resuspended in DMEM supplemented with 1% FBS and 10 ng/mL recombinant rat PDGF-BB at 20,000 cells/mL. The cells were aliquoted into 384 well plates at 50 μL/well and incubated for 4 hours at 37° C. 0.5 μL of test compound 3-fold serially diluted in DMSO was added to each well. The plates were returned to the incubator for a further 68 hours. 25 μL of CellTiter-Glo (Promega) was added to each well and the plates were incubated on the bench for 15 minutes. Luminescence was then read using a CLIPR CCD camera (Molecular Devices).

Q: With `Cc1ccc(C(=O)N[C@H]2c3ccccc3C[C@H]2O)cc1NC(=O)c1cnc2ccccn12` [F21, N-(5-{[(1S,2R)-2-hydroxy-2,3-dihydro-1H-inden-1-yl]carbamoyl}-2-methylphenyl)imidazo[1,2-a]pyridine-3-carboxamide] as the compound, how does the IC50 read?
A: 95 nM

Q: `Cc1ccn2c(C(=O)Nc3cc(C(=O)N[C@@H](CO)[C@@H](O)c4ccccc4)ccc3F)cnc2c1` [F127, N-(5-{[(1S,2S)-1,3-dihydroxy-1-phenylpropan-2-yl]carbamoyl}-2-fluorophenyl)-7-methylimidazo[1,2-a]pyridine-3-carboxamide] was tested. Which IC50 did it give?
A: 86 nM

Q: For `Cc1ccc2ncc(C(=O)Nc3cc(C(=O)N[C@@H]4c5cc(F)ccc5C[C@@H]4O)ccc3F)n2c1` [F29, N-(2-fluoro-5-{[(1R,2S)-6-fluoro-2-hydroxy-2,3-dihydro-1H-inden-1-yl]carbamoyl}phenyl)-6-methylimidazo[1,2-a]pyridine-3-carboxamide], which IC50 is on record?
A: 105 nM

Q: Which IC50 does the source give for `Cc1ccc2ncc(C(=O)Nc3cc(C(=O)N[C@H]4CCCC[C@@H]4O)ccc3F)n2c1` [F114, N-(2-fluoro-5-{[(1S,2S)-2-hydroxycyclohexyl]carbamoyl}phenyl)-6-methylimidazo[1,2-a]pyridine-3-carboxamide] here?
A: 70 nM

Q: How did the IC50 turn out when `O=C(N[C@@H]1c2ccccc2C[C@@H]1O)c1ccc(F)c(NC(=O)c2cnc3ccc(F)cn23)c1` [F27, 6-fluoro-N-(2-fluoro-5-{[(1R,2S)-2-hydroxy-2,3-dihydro-1H-inden-1-yl]carbamoyl}phenyl)imidazo[1,2-a]pyridine-3-carboxamide] was run?
A: 168 nM

Q: For `O=C(NCC(O)c1ccccc1Cl)c1ccc(F)c(NC(=O)c2cnc3ccccn23)c1` (stereo not shown) [F120, N-(5-{[2-(2-chlorophenyl)-2-hydroxyethyl]carbamoyl}-2-fluorophenyl)imidazo[1,2-a]pyridine-3-carboxamide], which IC50 is on record?
A: 36 nM

Same assay, conditions: Table 2; Rat A10 cells, recombinant rat PDGF-BB, CellTiter-Glo after 68 hours

Q: `CC(C)(CO)NC(=O)c1ccc(F)c(NC(=O)c2cnc3ccccn23)c1` [F98, N-{2-fluoro-5-[(1-hydroxy-2-methylpropan-2-yl)carbamoyl]phenyl}imidazo[1,2-a]pyridine-3-carboxamide] was tested. Which IC50 did it give?
A: > 10000 nM

Q: `Cc1ccc2ncc(C(=O)Nc3cc(C(=O)N[C@H]4c5ccccc5C[C@H]4O)ccc3F)n2c1` [F36, N-(2-fluoro-5-{[(1S,2R)-2-hydroxy-2,3-dihydro-1H-inden-1-yl]carbamoyl}phenyl)-6-methylimidazo[1,2-a]pyridine-3-carboxamide] was tested. Which IC50 did it give?
A: 234 nM

Q: Which IC50 does the source give for `Cc1ccc2ncc(C(=O)Nc3cc(C(=O)N[C@@H]4c5ccccc5C[C@@H]4O)c(F)cc3F)n2c1` [F87, N-(2,4-difluoro-5-{[(1R,2S)-2-hydroxy-2,3-dihydro-1H-inden-1-yl]carbamoyl}phenyl)-6-methylimidazo[1,2-a]pyridine-3-carboxamide] here?
A: 2860 nM

Q: With `O=C(N[C@H]1CCCC[C@H]1O)c1ccc(F)c(NC(=O)c2cnc3ccccn23)c1` [F50, N-(2-fluoro-5-{[(1S,2R)-2-hydroxycyclohexyl]carbamoyl}phenyl)imidazo[1,2-a]pyridine-3-carboxamide] as the compound, how does the IC50 read?
A: 373 nM

Q: `O=C(N[C@H]1c2ccccc2C[C@H]1O)c1ccc(F)c(NC(=O)c2cnc3ccc(-n4ccnc4)cn23)c1` [F81, N-(2-fluoro-5-{[(1S,2R)-2-hydroxy-2,3-dihydro-1H-inden-1-yl]carbamoyl}phenyl)-6-(1H-imidazol-1-yl)imidazo[1,2-a]pyridine-3-carboxamide] was tested. Which IC50 did it give?
A: > 10000 nM

Q: With `CSCC[C@@H](CO)NC(=O)c1ccc(F)c(NC(=O)c2cnc3ccccn23)c1` [F96, N-(2-fluoro-5-{[(2S)-1-hydroxy-4-(methylsulfanyl)butan-2-yl]carbamoyl}phenyl)imidazo[1,2-a]pyridine-3-carboxamide] as the compound, how does the IC50 read?
A: 556 nM

Q: `O=C(N[C@H]1CCC[C@H]1O)c1ccc(F)c(NC(=O)c2cnc3ccccn23)c1` [F74, N-(2-fluoro-5-{[(1S,2R)-2-hydroxycyclopentyl]carbamoyl}phenyl)imidazo[1,2-a]pyridine-3-carboxamide] was tested. Which IC50 did it give?
A: 3480 nM
